Measurements: patent US20090054404A1, “USE OF R-10-HYDROXY-10,11-DIHYDRO-CARBAMAZEPINE IN NEUROPATHIC PAIN” (priority 2003, published 2009)

Tests used:
[1] = system: neuropathic guinea-pigs; assay: Side-effects observed after administration in the neuropathic pain model; format: in vivo, guinea pig
Description: (§1) The enantiomers of the compound of formula I are administered daily in 0.5% methyl-cellulose/water, with Trileptal™ included in each experiment as positive control. Each experiment uses 6 randomly assigned animals per treatment group. Statistical analysis is carried out on withdrawal threshold data comparing test to vehicle.
The R-enantiomer of the compound of formula I produces a dose-related reversal of mechanical hyperalgesia in neuropathic guinea-pigs. A maximum reversal of 73% is observed 1 h following administration with a calculated D50 value of 47 mg/kg.

[2] = system: neuropathic guinea-pigs; assay: Reversal of mechanical hyperalgesia in a model of neuropathic pain (partial sciatic nerve ligation, paw withdrawal threshold); format: in vivo, guinea pig
Source text: Neuropathic hyperalgesia is induced by partial ligation of the left sciatic nerve (Seltzer et al, Pain 43, 1990, 205-218; Campbell et al, Neuroscience 87, 1998, 527-532). Briefly, male Dunkin Hartley guinea pigs (200-250 g) are anaesthetized with isoflurane in N2O:O2, the left sciatic nerve exposed at mid thigh level through a small incision and ⅓ to ½ of the nerve thickness tightly ligated within a 7.0 silk suture. The wound is closed and the animals are allowed to recover from surgery for 12 to 15 days.
Mechanical hyperalgesia is assessed by measuring paw withdrawal thresholds to an increasing pressure stimulus placed onto the dorsal surface of the paw using an analgesymeter (Ugo-Basile, Milan) with a cut-off of 250 g. Withdrawal are measured on both the ipsilateral (ligated) and contralateral (unligated) paw prior to and then up to 6 h following drug or vehicle administration. Reversal of hyperalgesia at each time point is calculated according to the following formula, which uses the contralateral paw as a reference: […]
as §1

[3] = highest dose tested (100 mg/kg)
[4] = 1 h following administration, neuropathic guinea-pigs

Row | SMILES | side-effects ([1]; at doses that reverse mechanical hyperalgesia) | anti-hyperalgesic activity [2, 3] | apparent maximal reversal of hyperalgesia [2, 3] [%] | anti-hyperalgesic activity ([2]; lower doses (below 100 mg/kg)) | side-effects ([1]; highest dose) | calculated D50 value (reversal of mechanical hyperalgesia) [2, 4] [mg/kg] | maximum reversal of mechanical hyperalgesia [2, 4] [%] | duration of anti-hyperalgesic effect ([2]; 6 h following administration)
1 | NC(=O)N1c2ccccc2C[C@H](O)c2ccccc21 (single isomer, unassigned) [S-enantiomer, S(+)-10,11-dihydro-10-hydroxy-5H-dibenzo[b,f]azepine-5-carboxamide] | marked side-effects, principally ataxia and catalepsy | observed | 55 | no significant effect | – | – | – | –
2 | NC(=O)N1c2ccccc2C[C@@H](O)c2ccccc21 (single isomer, unassigned) [R-enantiomer, R(−)-10,11-dihydro-10-hydroxy-5H-dibenzo[b,f]azepine-5-carboxamide] | – | – | – | – | comparatively mild side-effect | 47 | 73 | significant activity
